System: myocardial ischemia reperfusion in rat
Assay: Therapeutic effect on myocardial ischemia reperfusion in rat (coronary ligation 45 min, reperfusion 2 h, TCC staining of heart sections)
Type: in vivo, Wistar rats
Conditions: Group D
Method: Wistar rats (male, 200˜240 g) were divided into groups and administered with different dosages of rhNRG-1, placebo or rhThymosin-β4 (as shown in Table 1) after anaesthetized with intra-abdominal injection of 20% urethane (5 ml/kg). Thirty minutes after the drug started to be given to the rats, the anterior descending limb of the left coronary artery was ligated for 45 minutes to cause partial myocardium turned white obviously in the ligation area. After that the ligation thread was loosen to keep coronary blood flow for 2 hours and then take out the heart rapidly and wash vascular fat away with normal saline, and then freeze the heart in −30° C. for one hour.
Cut the heart parallelly from apex to base along coronary sulcus to myocardium sections with the thickness of 1 mm, and then put them into TCC dye liquor for 20 min in 37° C. in a shaker. After staining extra dye was washed immediately with water, and then the sections were put into 4% formalin for one hour. Photo and analyze the total size and the infarction size of were analyzed with Image Analysis Software. Infarction size ratio equals to the ratio of the infarction size and the total size of the myocardium section.

Question: For “rhThymosin-β4: produced by Northland (Beijing) Bio-Technology Co Ltd, batch number: 20050728; comparator drug of Group D (SDKPDMAEIEKFDKSKLKKTETQEKNPLPSKETIEQEKQAGES; Thymosin beta-4; UniProt P62328 2-44, looked up)”, which “Infarction size compared with other groups” value (2.5 mg/kg single intraperitoneal injection) is on record?
Answer: no significant difference with other groups

Question: What about the “The myocardium infarction size ratio” value (2.5 mg/kg single intraperitoneal injection 30 min before ligation, infarction size / total size of myocardium section, mean ± spread, 2.5 mg/kg) of the same substance?
Answer: 0.151±0.030
